Experimental data: US20040127403A1, “Methods for treating and preventing Gram-positive bacteremias” (priority 2002, published 2004)

Experiments:
[1] = Oral bioavailability and pharmacokinetics in the rat; format: in vivo
Method: The oral availability of ramoplanin was assessed by comparing a 1000 mg/kg oral dose with a 5 mg/kg intravenous dose in the rat. […] The mean absorption time was 3.4 hours. […] Terminal elimination half-lives were 3.5 and 5.9 hours for the intravenous and oral doses, respectively. […] In intravenously treated rats, the amount excreted in urine represented less than 0.01% of the administered dose.

[2] = Bioavailability and serum pharmacokinetics in Beagle dogs; format: in vivo
Method: The bioavailability of a 300 mg/kg ramoplanin oral gelatin capsule and the serum pharmacokinetics of a 5 mg/kg intravenous dose were examined in four male Beagle dogs.

[3] = test system: Gram-positive bacteria (staphylococci, streptococci, enterococci) in feces; experiment: Multiple dose study: activity on stool microflora, Gram-positive bacteria; format: in vivo, human
Method: (§1) Healthy male volunteers were administered 200, 400, or 800 mg ramoplanin twice-a-day, for ten consecutive days. The predetermined dose was reconstituted in 5 mL water per vial, mixed with 50 mL of sweetened, aromatized solution, and immediately administered orally to the subjects.
(§2) The antibacterial activity of ramoplanin on the stool microflora was assessed in a subset of the subjects. Microbial concentrations (i.e., the number of organisms per gram of fecal matter) were determined at the following time points: Day-4 (pre-treatment), Days 4 and 10 (treatment), and Days […] and 24 (follow-up). Tolerability and absorption were also investigated.

[4] = test system: Gram-negative bacteria (enteric bacteria and Bacteroides spp.) or yeast; experiment: Multiple dose study: activity on stool microflora, Gram-negative bacteria and yeast; format: in vivo, human; details: healthy male volunteers, oral 200, 400, 800 mg B.I.D. 10 days
Method: as §1, §2

VRE [5] = experiment: Multiple dose study in asymptomatic carriers of intestinal VRE; format: in vivo, human; details: for patients with no detectable VRE, number / patients with no detectable VRE: Day 7; for patients with no detectable VRE: rectal swab; for patients VRE free: Day 14 (seven days after cessation); for patients VRE free, number: Day 14
Method: Patients identified as asymptomatic carriers of VRE were administered placebo or one of two dosages (100 mg, 400 mg) of ramoplanin b.i.d. (twice daily) for seven days. Patients were assessed by rectal swab on Days 7, 14, and 21 to determine the presence or absence of VRE. On Days 45 and 90, stool samples were analyzed for long-term effects of ramoplanin on the recurrence of, or re-infection with, VRE. All VRE isolates were tested for susceptibility to ramoplanin.

fecal Enterococci = experiment: Oral formulation study: suppression of fecal Enterococci; format: in vivo, human; details: 400 mg b.i.d. seven days, granulated powder in Orasweet syrup; day 7/8
Method: (§3) To further elucidate the pharmacodynamics and intestinal bioavailability, healthy male volunteers (18-45 years; BMI—19-29 kg/m^2) were administered oral ramoplanin (400 mg b.i.d.) for seven days and fecal Enterococci were monitored. Ramoplanin was administered to six subjects as a granulated powder admixed with Orasweet® syrup vehicle.
The presence of fecal enterococci was confirmed in all subjects prior to study initiation. Fecal samples were cultured on day 7/8. The pharmacodynamic endpoints was the number of subjects with successful suppression of fecal Enterococci on day 7/8 compared to the pre-study culture.

[6] = Oral formulation study: ramoplanin in feces, plasma and urine; format: in vivo, human; details: 400 mg b.i.d. seven days
Method: as §3

VRE [7] = experiment: MIC against VRE, NCCLS broth microdilution; format: cell-based; details: all VRE in this study cultured in CAMHB
Method: (§4) The efficacy of ramoplanin was tested against recently isolated VRE that are resistant to linezolid and quinupristin/dalfopristin. The culture media containing ramoplanin was supplemented with 0.02% bovine serum albumin (BSA) to prevent ramoplanin binding to the plastic. MIC values were determined in both cation-adjusted Mueller-Hinton broth (CAMHB) and trypticase soy broth (TSB) by the National Committee for Clinical Laboratory Standards (NCCLS) broth microdilution method. Macromolecular biosynthesis experiments were done by following the incorporation of carbon-14-labeled N-acetylglucosamine, acetic acid, amino acids, uridine, and thymidine into peptidoglycan, fatty acid, protein, RNA and DNA, respectively.

peptidoglycan synthesis = experiment: Macromolecular biosynthesis (carbon-14 precursor incorporation); format: cell-based; details: ramoplanin at the MIC
Method: as §4

[8] = Storage stability of ramoplanin granules and reconstituted solution; format: physicochemical; details: refrigerated conditions
Method: Ramoplanin is available as granules for oral solution, provided, for example, in packets containing 400 mg free base of ramoplanin, along with pharmaceutically acceptable excipients (e.g., mannitol, hydroxypropyl methylcellulose, magnesium stearate). The contents of the packet can be reconstituted with approximately 15-30 mL of water, and the resulting solution either consumed directly, or further diluted with water, cranberry juice, apple juice, or 7-Up prior to drinking. After consumption, the drug may be followed with subsequent amounts of these beverages or with food (e.g., cracker, bread). […] The reconstituted ramoplanin aqueous solution has a shelf life of 48 hours when stored at refrigerated conditions.

Ramoplanin
amount excreted in urine ([1]; intravenously treated rats): less than 0.01 % of the administered dose | distribution ([1]; rat): not widely distributed outside the central compartment | volume of distribution at steady state ([1]; rat): 0.75 L/kg | volume of the central compartment ([1]; rat): 0.42 L/kg | time of maximum observed serum concentration ([1]; rat, 5 mg/kg intravenous): 0.083 h | Maximum observed serum concentration ([1]; rat, 1000 mg/kg oral): 2.8 µg/mL | mean absorption time ([1]; rat, 1000 mg/kg oral): 3.4 h | time of maximum observed serum concentration ([1]; rat, 1000 mg/kg oral): 0.5 h | absolute bioavailability (F) ([1]; rat, 1000 mg/kg oral relative to 5 mg/kg intravenous): 0.18% | Terminal elimination half-life ([1]; rat, intravenous dose): 3.5 h | Terminal elimination half-life ([1]; rat, oral dose): 5.9 h | distribution to tissues [2]: not distributed widely to tissues | mean absorption time ([2]; 300 mg/kg oral gelatin capsule): 8.19 ± 3.12 h | absolute bioavailability ([2]; 300 mg/kg oral gelatin capsule vs 5 mg/kg intravenous): less than 1% | concentrations of staphylococci, streptococci, and enterococci in stool ([3]; by Day 10, all subjects): below the level of detection | effect on Gram-positive bacteria in stool ([3]; first measurement on Day 4 of treatment): marked effect | intestinal flora after therapy ([3]; follow-up after the 10-day therapy): re-colonized by normal Gram-positive bacteria | Gram-positive colony counts in feces ([3]; healthy male volunteers, all doses (200, 400, 800 mg B.I.D.), during the 10-day regimen): undetectable levels | effect on Gram-negative flora / yeast in stool [4]: not effective | effect on Gram-negative flora / yeast in stool ([4]; listed as ramoplanin): no effect | patients with no detectable VRE, number (VRE [5]; 100 mg b.i.d. for seven days): 17 of 21 | patients with no detectable VRE (VRE [5]; 100 mg b.i.d. for seven days): 81.0% | patients with no detectable VRE, number (VRE [5]; 400 mg b.i.d. for seven days): 18 of 20 | patients with no detectable VRE (VRE [5]; 400 mg b.i.d. for seven days): 90.0% | patients VRE free (VRE [5]; 100 mg b.i.d.): 28.6% | patients VRE free (VRE [5]; 400 mg b.i.d.): 41.2% | patients VRE free, number (VRE [5]; 100 mg b.i.d.): 6 of 21 | patients VRE free, number (VRE [5]; 400 mg b.i.d.): 7 of 17 | number of VRE-free patients (VRE [5]; Day 21): comparable among all treatment groups | growth of fecal enterococci (fecal Enterococci): suppressed in all test subjects | fecal ramoplanin concentration [6]: 0.56 to 2.65 mg/g | ramoplanin concentration in plasma or urine ([6]; any subject): No measurable ramoplanin concentration was detected | MIC (VRE [7]): 0.125 to 0.25 µg/mL | first macromolecular biosynthetic pathway inhibited (peptidoglycan synthesis): peptidoglycan synthesis | storage stability ([8]; 400 mg granulated powder packets): stable for at least one year | shelf life ([8]; reconstituted ramoplanin aqueous solution): 48 h
